Laboratory results: patent US20050203172A1, “Novel compounds” (priority 2002, published 2005)
Counter-ions that a name gives are not always drawn.

Tested on: human form of induced nitric oxide synthase in DLD-1 cells
Experiment: Screen 3: nitrite accumulation (Griess) in cytokine-induced DLD-1 cells
Type: cell-based
Conditions: DLD-1 cells induced with gamma-IFN, TNF-alpha, IL-6, IL-1-beta, 5 hours with compound, read-out: IC50 (inhibition of nitrite accumulation)
Description: The human colorectal carcinoma cell line, DLD-1 (obtained from the European Collection of Animal Cell Culture—cell line number 90102540) was routinely grown in RPMI 1640 supplemented with 10% (v/v) foetal bovine serum, and 2 mM L-glutamine, at 37° C. in 5% CO2. Nitric oxide synthase was induced in cells by addition of medium containing human recombinant gamma-IFN (1000 units/ml), TNF-alpha (200 U/ml), IL-6 (200 U/ml) and IL-1-beta (250 U/ml). After incubation for 18 hours at 37° C., the medium was removed and the cells washed with warm phosphate buffered saline. Cells were incubated for a further 5 hours at 37° C./5% CO2 in RPMI 1640 containing 100 μM L-arginine and 100 μM verapamil-HCl in the presence and absence of test compounds. Nitrite accumulation was determined by mixing an equal volume of culture media with Griess reagent (10 mg/ml sulphanilamide, 1 mg N-(1-naphthyl)ethylenediamine in 1 ml 2.5% (v/v) phosphoric acid). Inhibition in the presence of compounds was calculated relative to the nitrite levels produced by untreated cells. IC50 values were estimated from a semi-log plot of % inhibition versus concentration of compound.

Row | Structure (SMILES) | IC50
1 | Cc1cc(S[C@H](C[C@H](N)CO)c2ccccc2)c(C#N)s1 [Example 2, 3-[[(1R,3S)-3-Amino-4-hydroxy-1-phenylbutyl]thio]-5-methyl-2-thiophenecarbonitrile Oxalate] | < 100 µM
2 | N#Cc1sccc1S[C@H](C[C@H](N)CO)c1ccccc1 [Example 1, 3-[[(1R,3S)-3-Amino-4-hydroxy-1-phenylbutyl]thio]-2-thiophenecarbonitrile oxalate] | < 100 µM
